The source of these data is US20250066370A1, “BICYCLIC TRIAZINE DERIVATIVES FOR THE TREATMENT OF CANCER” (DEUTSCHES KREBSFORSCHUNGSZENTRUM, priority 2022, published 2025).

Test [1] concerns CAL-120, human breast adenocarcinoma cells. Kind of test: Proliferation assay CAL-120 (crystal violet). The test is classed as cell-based. As to conditions: 96 h, CAL-120 parental cells, 4 days, median, read-out: Prolif-CAL-120, IC50 - [mol/l] (median). The protocol: Human tumour cells were originally obtained from the American Type Culture Collection (ATCC), or from the Deutsche Sammlung von Mikroorganismen und Zellkulturen (DSMZ, German Collection of Microorganisms and Cell Cultures). Cultivated tumour cells (CAL-120, human breast adenocarcinoma cells, DSMZ ACC-459; MDA-MB-231, human breast cancer cells, ATCC HTB-26) were plated at a density of 4,000 cells/well in a 96-well multitier plate in 200 microL of their respective growth medium supplemented 10% fetal calf serum. After 24 hours, the cells of one plate (zero-point plate) were stained with crystal violet (see below), while the medium of the other plates was supplemented with the test substances in various concentrations (0 micromol/L, as well as in the range of 0.01-10 micromol/L; the final concentration of the solvent dimethyl sulfoxide was adjusted to 0.1%) using a Tecan HP D300 Digital Dispenser. The cells were incubated for 4 days in the presence of test substances. Cell proliferation was determined by staining the cells with crystal violet: the cells were fixed by adding 20 microL/measuring point of an 11% glutaric aldehyde solution for 15 minutes at room temperature. After three washing cycles of the fixed cells with water, the plates were dried at room temperature. The cells were stained by adding 100 microL/measuring point of a 0.1% crystal violet solution (pH 3.0). After three washing cycles of the stained cells with water, the plates were dried at room temperature. The dye was dissolved by adding 100 microL/measuring point of a 10% acetic acid solution. The extinction was determined by photometry at a wavelength of 595 nm. The change of cell number, in percent, was calculated by normalization of the measured values to the extinction values of the zero-point plate (=0%) and the extinction of the untreated (0 μM) cells (=100%). The IC50 values (inhibitory concentration at 50% of maximal effect) were determined by means of a 4 parameter fit.

The test system of test [2] is BRCA1 mRNA expression in MDA-MB-231 cells. Kind of test: qRT-PCR assay: inhibition of BRCA1 mRNA expression in MDA-MB-231 cells. In kind it is cell-based. As to conditions: Homo sapiens, 24 h exposure, BRCA1 normalised to GAPDH, median, read-out: RTqPCR-MDA-MB-231, IC50 [mol/l], BRCA1 (median). As for the experimental part: 3. qRT-PCR Assay: BRCA1, ATR, MCL1 in MDA-MB-231, CAL-120
Tissue cultured human MDA-MB-231 human breast cancer cells were plated in 500 microL per well at 200,000 cells/well in a 24 well microtiter plate. After 24 h, the cells were exposed continuously for 24 h to test substances (substances were added with Tecan HP D300 Dispenser). RNA was prepared using Qiagen RNeasy MiniKit (#74106), RNA was quantified using a NanoDrop Equipment, and 600 nano grams of RNA was converted to cDNA using a SuperScript VILO kit (Thermofisher #11755050) followed by qPCR amplification. BRCA1 and ATR gene expression was measured by RT-qPCR and normalised to GAPDH housekeeping gene expression. qPCR primer sets have been purchased from Thermo Fisher Scientific/Applied Biosystems: BRCA1, #Hs 01556193; ATR. #Hs 00992123: GAPDH. #Hs 03929097.

For test [3], the target named is CDK9/CyclinT1 (Homo sapiens (Human), UniProt P50750). The test can be described thus: CDK9/CycT1 high ATP kinase assay (TR-FRET). As to conditions: 2 mM ATP (high ATP); median; read-out: CDK9/CyclinT1, 2 mM ATP (high ATP), IC50 - [mol/l] (median). The test is classed as biochemical. The protocol: CDK9/CycT1-inhibitory activity of compounds of the present invention at a high ATP concentration after preincubation of enzyme and test compounds was quantified employing the CDK9/CycT1 TR-FRET assay as described in the following paragraphs.
Recombinant full-length His-tagged human CDK9 and CycT1, expressed in insect cells and purified by Ni-NTA affinity chromatography, were purchased from Life Technologies (Cat. No PV4131). As substrate for the kinase reaction biotinylated peptide biotin-Ttds-YISPLKSPYKISEG (C-terminus in amide form) was used which can be purchased e.g. form the company JERINI peptide technologies (Berlin, Germany).
For the assay 50 nanoL of a 100 fold concentrated solution of the test compound in DMSO was pipetted into either a black low volume 384 well microtiter plate or a black 1536 well microtiter plate (both Greiner Bio-One, Frickenhausen, Germany), 2 microL of a solution of CDK9/CycT1 in aqueous assay buffer [50 millimol/L Tris/HCl PH 8.0, 10 millimol/L MgCl2, 1.0 millimol/L dithiothreitol, 0.1 millimol/L sodium ortho-vanadate, 0.01% (v/v) Nonidet-P40 (Sigma)] were added and the mixture was incubated for 15 min at 22° C. to allow pre-binding of the test compounds to the enzyme before the start of the kinase reaction. Then the kinase reaction was started by the addition of 3 microL of a solution of adenosine-tri-phosphate (ATP, 3.3 millimol/L=>final conc. in the 5 microL assay volume is 2 millimol/L) and substrate (1.25 micromol/L=>final conc. in the 5 microL assay volume is 0.75 micromol/L) in assay buffer and the resulting mixture was incubated for a reaction time of 25 min at 22° C. The concentration of CDK9/CycT1 was adjusted depending of the activity of the enzyme lot and was chosen appropriate to have the assay in the linear range, typical concentrations were in the range of 0.5 microg/ml. The reaction was stopped by the addition of 3 microL of a solution of TR-FRET detection reagents (0.33 micromol/L streptavidine-XL665 [Cisbio Bioassays, Codolet, France] and 1.67 nanomol/L anti-RB (pSer807/pSer811)-antibody from BD Pharmingen [#558389] and 2 nanomol/L LANCE EU-W1024 labeled anti-mouse IgG antibody [Perkin-Elmer, product no. AD0077]) in an aqueous EDTA-solution (167 millimol/L EDTA, 0.2% (w/v) bovine serum albumin in 100 millimol/L HEPES pH 7.5).
The resulting mixture was incubated 1 h at 22° C. to allow the formation of complex between the phosphorylated biotinylated peptide and the detection reagents. Subsequently the amount of phosphorylated substrate was evaluated by measurement of the resonance energy transfer from the Eu-chelate to the streptavidine-XL. Therefore, the fluorescence emissions at 620 nm and 665 nm after excitation at 350 nm was measured in a TR-FRET reader, e.g. a Pherastar (BMG Labtechnologies, Offenburg, Germany) or a Viewlux (Perkin-Elmer). The ratio of the emissions at 665 nm and at […] was taken as the measure for the amount of phosphorylated substrate. The data were normalised (enzyme reaction without inhibitor=0% inhibition, all other assay components but no enzyme=100% inhibition).

Sequence of CDK9/CyclinT1 (P50750 whole entry): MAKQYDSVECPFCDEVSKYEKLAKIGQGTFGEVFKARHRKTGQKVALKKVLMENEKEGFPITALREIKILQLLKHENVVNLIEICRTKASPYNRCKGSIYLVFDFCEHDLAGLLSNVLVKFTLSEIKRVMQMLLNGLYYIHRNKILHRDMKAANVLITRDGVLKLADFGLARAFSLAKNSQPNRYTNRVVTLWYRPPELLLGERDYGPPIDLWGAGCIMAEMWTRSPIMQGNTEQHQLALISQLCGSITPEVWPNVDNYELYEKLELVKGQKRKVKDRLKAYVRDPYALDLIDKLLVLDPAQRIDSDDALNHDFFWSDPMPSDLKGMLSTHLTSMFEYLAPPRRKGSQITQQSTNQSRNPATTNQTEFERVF
Sequence of CDK9/CyclinT1 (O60563 whole entry partner): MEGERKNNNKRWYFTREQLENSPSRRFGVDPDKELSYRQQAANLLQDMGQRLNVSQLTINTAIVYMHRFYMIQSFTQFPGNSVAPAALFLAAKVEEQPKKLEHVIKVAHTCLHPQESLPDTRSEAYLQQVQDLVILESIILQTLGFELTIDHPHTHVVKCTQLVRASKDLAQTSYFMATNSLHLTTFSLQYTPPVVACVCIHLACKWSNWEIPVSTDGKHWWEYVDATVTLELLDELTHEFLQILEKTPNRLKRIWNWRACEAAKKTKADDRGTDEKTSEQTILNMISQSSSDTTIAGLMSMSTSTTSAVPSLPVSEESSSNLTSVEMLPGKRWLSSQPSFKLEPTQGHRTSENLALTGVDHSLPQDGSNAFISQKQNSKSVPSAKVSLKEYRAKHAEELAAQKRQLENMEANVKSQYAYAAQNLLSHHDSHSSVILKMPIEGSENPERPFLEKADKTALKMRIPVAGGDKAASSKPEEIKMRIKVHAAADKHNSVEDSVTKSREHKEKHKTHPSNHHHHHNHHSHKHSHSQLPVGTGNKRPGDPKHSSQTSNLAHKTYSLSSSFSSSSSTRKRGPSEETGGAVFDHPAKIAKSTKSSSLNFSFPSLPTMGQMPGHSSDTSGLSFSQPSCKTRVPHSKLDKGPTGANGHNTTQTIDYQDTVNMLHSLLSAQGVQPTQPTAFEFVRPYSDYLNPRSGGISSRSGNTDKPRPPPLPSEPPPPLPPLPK

Regarding `COc1ccc(-c2nnc(CNc3nc(N4CCOCC4)nn4c(C(F)(F)F)cnc34)[nH]2)cn1` [Example 18, N-{[5-(6-methoxypyridin-3-yl)-4H-1,2,4-triazol-3-yl]methyl}-2-(morpholin-4-yl)-7-(trifluoromethyl)imidazo[2,1-f][1,2,4]triazin-4-amine], the IC50 is 104 nM in test [1] and 71.5 nM in test [2].

Turning to `FC(F)(F)c1ccc(-c2cnc(CNc3nc(N4CCOCC4)nc4c(C(F)(F)F)cnn34)[nH]2)cc1` [Example 9, 2-(morpholin-4-yl)-8-(trifluoromethyl)-N-({5-[4-(trifluoromethyl)phenyl]-1H-imidazol-2-yl}methyl)pyrazolo[1,5-a][1,3,5]triazin-4-amine], the IC50 in test [1] is 109 nM; in test [3], more than 19100 nM; in test [2], 102 nM.

For the compound `FC(F)(F)c1ccc(-c2cnc(CNc3nc(N4CCOCC4)nn4c(C(F)(F)F)cnc34)[nH]2)cc1` [Example 7, 2-(morpholin-4-yl)-7-(trifluoromethyl)-N-({5-[4-(trifluoromethyl)phenyl]-1H-imidazol-2-yl}methyl)imidazo[2,1-f][1,2,4]triazin-4-amine], the IC50 is 103 nM in test [1] and more than 20000 nM in test [3].

On to `FC(F)(F)c1ccc(-c2nnc(CNc3nc(N4CCOCC4)nc4c(Br)cnn34)[nH]2)cc1` [Example 1, 8-bromo-2-(morpholin-4-yl)-N-({5-[4-(trifluoromethyl)phenyl]-4H-1,2,4-triazol-3-yl}methyl)pyrazolo[1,5-a][1,3,5]triazin-4-amine], for which the IC50 came to 580 nM in test [1], 4580 nM in test [3] and 514 nM in test [2].

`COc1ccc(-c2nnc(CNc3nc(N4CCOCC4)nc4c(C(F)(F)F)cnn34)[nH]2)cn1` [Example 15, N-{[5-(6-methoxypyridin-3-yl)-4H-1,2,4-triazol-3-yl]methyl}-2-(morpholin-4-yl)-8-(trifluoromethyl)pyrazolo[1,5-a][1,3,5]triazin-4-amine]: in test [1], the IC50 was 355 nM.

Consider `FC(F)(F)Oc1ccc(-c2cnc(CNc3nc(N4CCOCC4)nc4c(Br)cnn34)[nH]2)cc1` [Example 4, 8-bromo-2-(morpholin-4-yl)-N-({5-[4-(trifluoromethoxy)phenyl]-1H-imidazol-2-yl}methyl)pyrazolo[1,5-a][1,3,5]triazin-4-amine], for which the values for the IC50 in test [1], in test [3] and in test [2] were 103 nM, more than 20000 nM and 6.94 nM, respectively.

As for `COc1ccc(-c2cnc(CNc3nc(N4CCOCC4)nc4c(C(F)(F)F)cnn34)[nH]2)cn1` [Example 21, N-{[5-(6-methoxypyridin-3-yl)-1H-imidazol-2-yl]methyl}-2-(morpholin-4-yl)-8-(trifluoromethyl)pyrazolo[1,5-a][1,3,5]triazin-4-amine], the IC50 in test [1] was found to be 99 nM; in test [3], 3050 nM; in test [2], 98.8 nM.

`FC(F)(F)c1ccc(-c2cnc(CNc3nc(N4CCOCC4)nc4c(Br)cnn34)[nH]2)cc1` [Example 3, 8-bromo-2-(morpholin-4-yl)-N-({5-[4-(trifluoromethyl)phenyl]-1H-imidazol-2-yl}methyl)pyrazolo[1,5-a][1,3,5]triazin-4-amine]: the IC50 in test [1] turned out to be 173 nM; in test [3] it was 15400 nM.

Regarding `FC(F)(F)c1ccc(-c2nnc(CNc3nc(N4CCOCC4)nn4c(C(F)(F)F)cnc34)[nH]2)cn1` [Example 20, 2-(morpholin-4-yl)-7-(trifluoromethyl)-N-({5-[6-(trifluoromethyl)pyridin-3-yl]-4H-1,2,4-triazol-3-yl}methyl)imidazo[2,1-f][1,2,4]triazin-4-amine], the IC50 in test [1] came out at 83.5 nM; in test [3], 847 nM; in test [2] it was 53.8 nM.

In the case of `FC(F)(F)Oc1ccc(-c2nnc(CNc3nc(N4CCOCC4)nn4c(C(F)(F)F)cnc34)[nH]2)cc1` [Example 14, 2-(morpholin-4-yl)-N-({5-[4-(trifluoromethoxy)phenyl]-4H-1,2,4-triazol-3-yl}methyl)-7-(trifluoromethyl)imidazo[2,1-f][1,2,4]triazin-4-amine], the values for the IC50 in test [1] and in test [3] were 248 nM and more than 20000 nM, respectively.

On to `Cc1ccc(-c2nnc(CNc3nc(N4CCOCC4)nc4c(C(F)(F)F)cnn34)[nH]2)cn1` [Example 22, N-{[5-(6-methylpyridin-3-yl)-4H-1,2,4-triazol-3-yl]methyl}-2-(morpholin-4-yl)-8-(trifluoromethyl)pyrazolo[1,5-a][1,3,5]triazin-4-amine], for which the IC50 turned out to be 333 nM in test [1] and 1890 nM in test [3].

As to `FC(F)(F)c1ccc(-c2nnc(CNc3nc(N4CCOCC4)nc4c(C(F)(F)F)cnn34)[nH]2)cc1` [Example 6, 2-(morpholin-4-yl)-8-(trifluoromethyl)-N-({5-[4-(trifluoromethyl)phenyl]-4H-1,2,4-triazol-3-yl}methyl)pyrazolo[1,5-a][1,3,5]triazin-4-amine], the IC50 in test [1] was 224 nM; in test [3], more than 20000 nM.

`FC(F)(F)c1ccc(-c2cnc(CNc3nc(N4CCOCC4)nc4c(C(F)(F)F)cnn34)[nH]2)cn1` [Example 24, 2-(morpholin-4-yl)-8-(trifluoromethyl)-N-({5-[6-(trifluoromethyl)pyridin-3-yl]-1H-imidazol-2-yl}methyl)pyrazolo[1,5-a][1,3,5]triazin-4-amine]: the IC50 in test [1] worked out at 30.2 nM; in test [2], 29.5 nM.

With `FC(F)(F)c1ccc(-c2nnc(CNc3nc(N4CCOCC4)nn4c(C(F)(F)F)cnc34)[nH]2)cc1` [Example 11, 2-(morpholin-4-yl)-7-(trifluoromethyl)-N-({5-[4-(trifluoromethyl)phenyl]-4H-1,2,4-triazol-3-yl}methyl)imidazo[2,1-f][1,2,4]triazin-4-amine], the values for the IC50 in test [1] and in test [3] were 419 nM and more than 20000 nM, respectively.
